Data: patent US8921318B2, “Application of initial doses of LHRH analogues and maintenance doses of LHRH antagonists for the treatment of hormone-dependent cancers and corresponding pharmaceutical kits” (Aeterna Zentaris GmbH, priority 2006, dated 2014)

Assays:
testosterone levels = experiment: Testosterone levels in prostate cancer patients under initial dose / maintenance dose treatment; format: in vivo, human; settings: for testosterone levels during first period: prostate cancer patients
Protocol: (§1) 130 mg ozarelix is given as a single monthly initial dose per i.m. injection every 4 weeks to patients suffering from prostate cancer for a first period of 3 months. […] Subsequently, patients are treated with single monthly maintenance doses of 30 mg ozarelix given per i.m. injection over a period of 6 months. […] The treatment scheme is then repeated continuously (chronic treatment).
(§2) 200 mg ozarelix is given as a single initial dose per i.m. injection once every 3 months to patients suffering from prostate cancer for a first period of 3 to 6 months. […] Subsequently, patients are treated with single monthly maintenance doses of 40 mg ozarelix given per i.m. injection over a period of 6 months. […] The treatment scheme is then repeated continuously (chronic treatment).
as §1, with “3.75” for “130”, “leuprorelin (leuprolide) are” for “ozarelix is”, “6” for “3”, “20” for “30”, “9” for “6”
as §2, with “11.25” for “200”, “leuprorelin (leuprolide) are” for “ozarelix is”, “three” for “3”, “3” for “3 to 6”, “50” for “40”, “3” for “6”

[1] = test system: Prostate Specific Antigen (PSA); experiment: PSA levels in prostate cancer patients under initial dose / maintenance dose treatment; format: in vivo, human; settings: for PSA levels decrease during first period: prostate cancer patients
Protocol: as §1, §2
as §1, with “3.75” for “130”, “leuprorelin (leuprolide) are” for “ozarelix is”, “6” for “3”, “20” for “30”, “9” for “6”
as §2, with “11.25” for “200”, “leuprorelin (leuprolide) are” for “ozarelix is”, “three” for “3”, “3” for “3 to 6”, “50” for “40”, “3” for “6”

[2] = Example 3: 3.75 mg leuprorelin i.m. single monthly initial dose every 4 weeks, first period 6 months
[3] = Example 4: 11.25 mg leuprorelin i.m. single initial dose once every three months, first period 3 months
[4] = Example 1: 130 mg ozarelix i.m. single monthly initial dose every 4 weeks, first period 3 months
[5] = Example 1: monthly maintenance doses of 30 mg ozarelix i.m. over 6 months, after 130 mg ozarelix initial doses
[6] = Example 2: 200 mg ozarelix i.m. single initial dose once every 3 months, first period 3 to 6 months
[7] = Example 2: monthly maintenance doses of 40 mg ozarelix i.m. over 6 months, after 200 mg ozarelix initial doses
[8] = Example 3: monthly maintenance doses of 20 mg ozarelix i.m. over 9 months, after 3.75 mg leuprorelin initial doses
[9] = Example 4: monthly maintenance doses of 50 mg ozarelix i.m. over 3 months, after 11.25 mg leuprorelin initial dose

Row | Compound | testosterone levels during first period (testosterone levels; [2]) | testosterone levels during first period (testosterone levels; [3]) | PSA levels decrease during first period [1, 2] | PSA levels decrease during first period [1, 3] | testosterone levels during first period (testosterone levels; [4]) | testosterone levels during second period (testosterone levels; [5]) | testosterone levels during first period (testosterone levels; [6]) | testosterone levels during second period (testosterone levels; [7]) | testosterone levels during second period (testosterone levels; [8]) | testosterone levels during second period (testosterone levels; [9]) | PSA levels decrease during first period [1, 4] | PSA levels during second period [1, 5] | PSA levels decrease during first period [1, 6] | PSA levels during second period [1, 7] | PSA levels during second period [1, 8] | PSA levels during second period [1, 9]
1 | CCNC(=O)[C@@H]1CCCN1C(=O)[C@H](CCCNC(=N)N)NC(=O)[C@H](CC(C)C)NC(=O)[C@@H](CC(C)C)NC(=O)[C@H](Cc1ccc(O)cc1)NC(=O)[C@H](CO)NC(=O)[C@H](Cc1c[nH]c2ccccc12)NC(=O)[C@H](Cc1c[nH]cn1)NC(=O)[C@@H]1CCC(=O)N1 [leuprorelin] | quickly reach castration level | quickly reach castration level | up to 95% | up to 95% |  |  |  |  |  |  |  |  |  |  |  | 
2 | ozarelix |  |  |  |  | quickly reach castration level | above 0.5 ng/mL | quickly reach castration level | above 0.5 ng/mL | above 0.5 ng/mL | above 0.5 ng/mL | up to 95% | remain stably low until the end of the second period | up to 95% | remain stably low until the end of the second period | remain stably low until the end of the second period | remain stably low until the end of the second period
